Experimental data published in article PMC3454376, “Salidroside Improves Behavioral and Histological Outcomes and Reduces Apoptosis via PI3K/Akt Signaling after Experimental Traumatic Brain Injury” (PLoS ONE, 2012).

Legend:
[1] = test system: mice subjected to controlled cortical impact injury; experiment: Residual cerebral tissue ratio, cresyl violet staining; type: in vivo; conditions: icv LY294002 30 min before CCI, then SALD 20 mg/kg ip (S20LY group); day 28; P<0.05 vs S20S
Method: All animal procedures were approved by the Animal Research Committee at Cheng Hsin General Hospital (Animal permit number CHIACUC 101–08), and all procedures complied with the Guide for the Care and Use of Laboratory Animals published by the US National Institutes of Health (NIH Publication No. 85–23, revised 1996). Animals were housed under a 12-h light/dark cycle and at constant temperature (21–25°C) and humidity (45–50%). They were allowed free access to pellet chow and water. TBI in mice was induced by a CCI injury model as previously described. Briefly, 8-week-old male C57BL/6 mice (weighing 22–25 g) were anesthetized through the use of intraperitoneal injection of sodium pentobarbital (65 mg/kg; Rhone Merieux, Harlow, UK) and placed in a stereotaxic frame. A 5 mm craniotomy was performed over the right parietal cortex, centered on the coronal suture and 0.1 mm lateral to the sagittal suture, and injury to dura was avoided. Injury was induced using a pneumatic piston with a rounded metal tip (2.5 mm diameter) that was angled 22.5° to the vertical so that the tip was perpendicular with the brain surface at the center of the craniotomy. The impact, with a velocity of […] and a deformation depth of 2 mm below the dura, was applied. The bone flap was immediately replaced and sealed, and the scalp was sutured. Body temperature was monitored throughout the surgery by a rectal probe; temperature was maintained at 37.0±0.5°C using a heated pad. Mice were placed in a heated cage to maintain body temperature, while recovering from anesthesia. Sham-operated mice underwent the same procedure as injured mice, but without CCI.
(§1) Mice were anesthetized and positioned in a stereotaxic frame. LY294002 (200 nM in 0.5 µL of saline) or equal amount of physiological saline was intracerebroventricularly (icv) injected at 30 min before CCI as previously described. A 1 mm cranial burr hole was drilled into the skull. A 30-gauge needle on a Hamilton syringe was implanted into the lateral ventricle using stereotactic coordinates: 1.5 mm posterior to bregma and 1.0 mm right lateral to the midline, 2 mm in depth. LY294002 or saline was infused into the brain at a rate of 0.05 µL/min over 10 min with an infusion pump (KDS 310, KD Scientific Inc., Holliston, MA, USA), and the needle was left in place for an additional 20 min to prevent reflux. After the needle was removed, CCI procedure was conducted immediately. Sham-operated mice were infused icv with saline, but were not subjected to CCI.
Three sets of experiments were performed. […] To determine the optimal dose of salidroside, a pilot study was performed using 2 different doses (20 and 50 mg/kg) administered 10 min after injury, and neurological deficits and tissue damage were evaluated as the main outcomes. […]

p-Akt Ser473 = experiment: Western blot, injured cortex; type: in vivo, mice
Method: as §1
(§2) Three sets of experiments were performed. The first set was to investigate the protective effects of salidroside. All animals were randomized into 1 of 3 groups (sham injury, CCI + vehicle, CCI + SALD 20). Surgery/injury, behavioral testing, and tissue analyses were performed by different individuals. Behavioral testing and tissue analyses were performed by individuals blinded to the treatment group. Salidroside (Cayman Chemical, Ann Arbor, MI, USA) dissolved in normal saline (0.25 mL) or a corresponding volume of vehicle (saline) was administered intraperitoneally 10 min following injury. Testing after injury was completed as follows: 1) behavioral testing at days 1, 4, 7, 14, 21, and 28 (n = 8–10 mice/group); 2) cresyl violet staining at day 28 (n = 9 mice/group); 3) histology, determination of brain water content, and western blot analysis at day 1 or 3 (n = 5–6 mice/group). To determine the optimal dose of salidroside, a pilot study was performed using 2 different doses (20 and 50 mg/kg) administered 10 min after injury, and neurological deficits and tissue damage were evaluated as the main outcomes. […] The second set of experiment was to assess the effect of the inhibition of PI3K/Akt with the specific PI3K inhibitor, LY294002 (Cell Signaling Technology, Danvers, MA, USA), on salidroside effects. Animals were randomized into 4 groups. Mice received either: 1) icv pretreatment of LY294002 followed by SALD 20 after CCI (S20Y group); or 2) icv pretreatment of saline (vehicle control) followed by SALD 20 after CCI (S20V group). 3) Mice were infused icv with saline and were subjected to sham injury. 4) Mice were infused icv with LY294002 and were subjected to sham injury. Testing after injury was completed as follows: 1) cresyl violet staining at day 28 (n = 6 mice/group); 2) western blot analysis at day 1 (n = 6 mice/group). The third set of experiment was performed to examine the neuroprotective time window afforded by salidroside. Mice received intraperitoneal SALD 20 or vehicle (saline) at 3 or 6 h following CCI and were sacrificed 1 day later for FJB staining and western blot analysis (n = 6 mice/group).
(§3) Brains of injured or sham animals were collected 1 day and 3 days post CCI or sham surgery, and a 4 mm coronal section from the injured area over the parietal cortex and ipsilateral hippocampus were collected. The protein samples were obtained from tissue homogenates in 300 µL of ice-cold reagent (T-PER reagent; Pierce Biotechnology, Rockford, IL, USA) with a complete mini protease inhibitor cocktail (Roche Molecular Biochemicals) centrifuged at 14000g for 30 min. Protein concentration was determined by Bradford reagent spectrophotometrically at A595. Equal amounts of protein samples were denatured in gel-loading buffer at 100°C for 5 min, and then loaded onto sodium dodecyl sulfate-polyacrylamide gels to be separated. Separated proteins were transferred to Immobilon-P membranes (Millipore, Billerica, MA, USA), blocked with the use of 5% milk in PBST and probed with primary antibodies. […]

p-Akt Thr308 = experiment: Western blot, injured cortex; type: in vivo, mice; conditions: icv LY294002 30 min before CCI + SALD 20 mg/kg ip (S20LY); day 1; P<0.05
Method: as §1, §2, §3

p-Bad = experiment: Western blot, injured cortex; type: in vivo, mice
Method: as §1, §2, §3

p-FOXO1 = experiment: Western blot, injured cortex; type: in vivo, mice
Method: as §1, §2, §3

[2] = icv LY294002 30 min before CCI + SALD 20 mg/kg ip, day 1, P>0.05

Compound: O=c1cc(N2CCOCC2)oc2c(-c3ccccc3)cccc12 [LY294002, reference compound]
- residual cerebral tissue ratio [1]: 71.0±6.3%
- p-Akt Ser473 level, S20LY versus S20V group (p-Akt Ser473; [2]): similar
- Akt phosphorylation (Ser473 and Thr308) in sham-operated mice (p-Akt Ser473; icv LY294002, sham injury): did not affect
- p-Akt Thr308 level, % of the S20V level (p-Akt Thr308): 58.1%
- p-Bad level, S20LY versus S20V group (p-Bad; [2]): similar
- Bad phosphorylation in sham-operated mice (p-Bad; icv LY294002, sham injury): did not affect
- p-FOXO1 level, % of the S20V level (p-FOXO1; icv LY294002 30 min before CCI + SALD 20 mg/kg ip (S20LY), day 1, P<0.05): 41.6%
- FOXO1 phosphorylation in sham-operated mice (p-FOXO1; icv LY294002, sham injury): did not affect
